Test results as given in US20150148235A1, “HERBICIDE-RESISTANT SUNFLOWER PLANTS WITH MULTIPLE HERBICIDE RESISTANT ALLELES OF AHASL1 AND METHODS OF USE” (NIDERA S.A., priority 2013, published 2015).

Test system: sunflower lines and hybrids carrying A122T and/or A205V AHASL1 alleles
Experiment: Greenhouse whole-plant response to imazapyr doses (height, Phytotoxicity Index, dry biomass), Example 2
Format: in vivo, Helianthus annuus
Settings: 14 DAT
Method: Seeds were sown in Petri dishes and, after germination, plantlets were transplanted to pots of 10 cm of diameter in a potting media consisting of equal parts of vermiculite, soil and sand. Plants were grown in a greenhouse under natural light conditions supplemented with 400 W sodium halide lamps to provide a 16 hr daylength. Day/night temperatures were 25 and 20° C., respectively. At the V2-V4 stage (Schneiter & Miller (1981) Crop Sci. 21:901-903) 10 plants of each genotype were randomly assigned to each treatment consisting of eight imazapyr doses (0, 40, 80, 160, 240, 320, 400 and 480 g ai/ha, corresponding to untreated, 0.5×, 1×, 2×, 3×, 4×, 5× and 6×, respectively), and a zero-time biomass determination. Experiment was arranged as a randomized block design with a full factorial (sunflower line×treatment) arrangement of treatments and 10 replications.
On the day of herbicide application ten plants of each genotype were cut at the cotyledonal node and dried at 60° C. for 48 hrs for zero-time dried weight determination.
The remaining plants were maintained for 14 days after imazapyr treatment (DAT) and their height, Phytotoxicity Index (PI) and above ground dry biomass were determined Height was determined as the distance between the cotyledonal node and the apex of each plant. Above ground biomass data from each line were converted to biomass accumulation after application by subtracting the appropriate average zero-time biomass from each sample. Dry biomass data were converted to percentages of the untreated control plants within each line to allow direct comparisons between groups.

[1] = H1 (A205V hybrid), 0.5x=40 g ai/ha
[2] = H2 (A122T hybrid), 0.5x=40 g ai/ha
[3] = H2 (A122T hybrid), 5x=400 g ai/ha
[4] = H3 (A122T/A205V hybrid), 1x=80 g ai/ha
[5] = H3 (A122T/A205V hybrid), 4x=320 g ai/ha
[6] = H3 (A122T/A205V hybrid), 6x=480 g ai/ha
[7] = H4 (A122T/A205V hybrid), 0.5x=40 g ai/ha
[8] = H4 (A122T/A205V hybrid), 2x=160 g ai/ha
[9] = H4 (A122T/A205V hybrid), 3x=240 g ai/ha

CC(C)C1(C)N=C(c2ncccc2C(=O)O)NC1=O (stereo not drawn) [imazapyr] was tested, and the “Difference between A205V vs A205V/A122T, Phytotoxicity Index” value (0.5x=40 g ai/ha) was −0.50, the “Difference between A205V vs A205V/A122T, biomass accumulation” value (0.5x=40 g ai/ha) was −4.33 % of untreated and the “Difference between A205V vs A205V/A122T, plant height” value (0.5x=40 g ai/ha) was 0.21 % of untreated. The “Difference between A1222T vs A205V/A122T, plant height” value (from here on “Difference between A1222T”) (0.5x=40 g ai/ha) was 0.49 % of untreated, the “ifference between A1222T vs A205V/A122T, Phytotoxicity Index” value (0.5x=40 g ai/ha) was −0.21 and the “ifference between A1222T vs A205V/A122T, biomass accumulation” value (0.5x=40 g ai/ha) was −0.76 % of untreated. The “Difference between A205V vs A205V/A122T, Phytotoxicity Index” value (1x=80 g ai/ha) was −0.50, the “Difference between A205V vs A205V/A122T, biomass accumulation” value (1x=80 g ai/ha) was −13.45 % of untreated and the “Difference between A205V vs A205V/A122T, plant height” value (1x=80 g ai/ha) was 0.89 % of untreated. For the same compound, the “Difference between A1222T” value (1x=80 g ai/ha) was 1.21 % of untreated, the “ifference between A1222T vs A205V/A122T, Phytotoxicity Index” value (1x=80 g ai/ha) was −0.21 and the “ifference between A1222T vs A205V/A122T, biomass accumulation” value (1x=80 g ai/ha) was −2.17 % of untreated. For the same compound, the “Difference between A205V vs A205V/A122T, Phytotoxicity Index” value (2x=160 g ai/ha) was 1.66, the “Difference between A205V vs A205V/A122T, biomass accumulation” value (2x=160 g ai/ha) was −30.47 % of untreated and the “Difference between A205V vs A205V/A122T, plant height” value (2x=160 g ai/ha) was −24.63 % of untreated. The “Difference between A1222T” value (2x=160 g ai/ha) was −0.32 % of untreated, the “ifference between A1222T vs A205V/A122T, Phytotoxicity Index” value (2x=160 g ai/ha) was −0.20 and the “ifference between A1222T vs A205V/A122T, biomass accumulation” value (2x=160 g ai/ha) was −1.07 % of untreated. The “Difference between A205V vs A205V/A122T, Phytotoxicity Index” value (3x=240 g ai/ha) was 4.65, the “Difference between A205V vs A205V/A122T, biomass accumulation” value (3x=240 g ai/ha) was −41.42 % of untreated and the “Difference between A205V vs A205V/A122T, plant height” value (3x=240 g ai/ha) was −46.79 % of untreated. The “Difference between A1222T” value (3x=240 g ai/ha) was −1.22 % of untreated, the “ifference between A1222T vs A205V/A122T, Phytotoxicity Index” value (3x=240 g ai/ha) was −0.17 and the “ifference between A1222T vs A205V/A122T, biomass accumulation” value (3x=240 g ai/ha) was 0.55 % of untreated. The “Difference between A205V vs A205V/A122T, Phytotoxicity Index” value (4x=320 g ai/ha) was 6.92, the “Difference between A205V vs A205V/A122T, biomass accumulation” value (4x=320 g ai/ha) was −52.87 % of untreated and the “Difference between A205V vs A205V/A122T, plant height” value (4x=320 g ai/ha) was −62.01 % of untreated. For the same compound, the “Difference between A1222T” value (4x=320 g ai/ha) was 1.15 % of untreated, the “ifference between A1222T vs A205V/A122T, Phytotoxicity Index” value (4x=320 g ai/ha) was 0.00 and the “ifference between A1222T vs A205V/A122T, biomass accumulation” value (4x=320 g ai/ha) was −0.73 % of untreated. The “Difference between A205V vs A205V/A122T, Phytotoxicity Index” value (5x=400 g ai/ha) was 7.59, the “Difference between A205V vs A205V/A122T, biomass accumulation” value (5x=400 g ai/ha) was −46.69 % of untreated and the “Difference between A205V vs A205V/A122T, plant height” value (5x=400 g ai/ha) was −48.59 % of untreated. For the same compound, the “Difference between A1222T” value (5x=400 g ai/ha) was 9.12 % of untreated, the “ifference between A1222T vs A205V/A122T, Phytotoxicity Index” value (5x=400 g ai/ha) was 0.21 and the “ifference between A1222T vs A205V/A122T, biomass accumulation” value (5x=400 g ai/ha) was −1.14 % of untreated. The “Difference between A205V vs A205V/A122T, Phytotoxicity Index” value (6x=480 g ai/ha) was 7.19, the “Difference between A205V vs A205V/A122T, biomass accumulation” value (6x=480 g ai/ha) was −41.41 % of untreated and the “Difference between A205V vs A205V/A122T, plant height” value (6x=480 g ai/ha) was −31.39 % of untreated. The “Difference between A1222T” value (6x=480 g ai/ha) was 19.49 % of untreated, the “ifference between A1222T vs A205V/A122T, Phytotoxicity Index” value (6x=480 g ai/ha) was 0.17 and the “ifference between A1222T vs A205V/A122T, biomass accumulation” value (6x=480 g ai/ha) was 2.41 % of untreated. For the same compound, the Height reduction (A122T homozygous lines, 0.5x) was 0.1%, the Biomass weight reduction (A122T homozygous, higher dose (6x)) was 25% and the “Height versus untreated controls” value (A205V homozygous lines and hybrid, 0.5x or 1x) was “did not differ from the untreated controls”. The “Phytotoxicity Index (scale 0-9)” value [1] was 0, the “biomass accumulation (dry)” value [1] was 95.0 % of untreated and the “Phytotoxicity Index (scale 0-9)” value (H1 (A205V hybrid), 1x=80 g ai/ha) was 0. For the same compound, the “Phytotoxicity Index (scale 0-9)” value (H1 (A205V hybrid), 2x=160 g ai/ha) was 1.8, the “Phytotoxicity Index (scale 0-9)” value (H1 (A205V hybrid), 3x=240 g ai/ha) was 6.4 and the “Phytotoxicity Index (scale 0-9)” value (H1 (A205V hybrid), 4x=320 g ai/ha) was 8.0. The “Phytotoxicity Index (scale 0-9)” value (H1 (A205V hybrid), 5x=400 g ai/ha) was 8.9, the “Phytotoxicity Index (scale 0-9)” value (H1 (A205V hybrid), 6x=480 g ai/ha) was 9.0 and the “Phytotoxicity Index (scale 0-9)” value [2] was 0.5. The “biomass accumulation (dry)” value [2] was 100 % of untreated, the “Phytotoxicity Index (scale 0-9)” value (H2 (A122T hybrid), 1x=80 g ai/ha) was 0.5 and the “Phytotoxicity Index (scale 0-9)” value (H2 (A122T hybrid), 2x=160 g ai/ha) was 0.5. The “Phytotoxicity Index (scale 0-9)” value (H2 (A122T hybrid), 3x=240 g ai/ha) was 0.5, the “Phytotoxicity Index (scale 0-9)” value (H2 (A122T hybrid), 4x=320 g ai/ha) was 0.5 and the “Phytotoxicity Index (scale 0-9)” value [3] was 0.5. For the same compound, the plant height [3] was 87.0 % of untreated, the “Phytotoxicity Index (scale 0-9)” value (H2 (A122T hybrid), 6x=480 g ai/ha) was 0.5 and the “Phytotoxicity Index (scale 0-9)” value (H3 (A122T/A205V hybrid), 0.5x=40 g ai/ha) was 0.5. The “Phytotoxicity Index (scale 0-9)” value [4] was 0.5, the “biomass accumulation (dry)” value [4] was 100.0 % of untreated and the plant height [4] was 97.0 % of untreated. The “Phytotoxicity Index (scale 0-9)” value (H3 (A122T/A205V hybrid), 2x=160 g ai/ha) was 0.5, the “Phytotoxicity Index (scale 0-9)” value (H3 (A122T/A205V hybrid), 3x=240 g ai/ha) was 0.5 and the “Phytotoxicity Index (scale 0-9)” value [5] was 0.5. For the same compound, the plant height [5] was 92.0 % of untreated, the “Phytotoxicity Index (scale 0-9)” value (H3 (A122T/A205V hybrid), 5x=400 g ai/ha) was 0.6 and the “Phytotoxicity Index (scale 0-9)” value [6] was 1.0. The plant height [6] was 58.0 % of untreated, the “Phytotoxicity Index (scale 0-9)” value [7] was 0.0 and the plant height [7] was 100.0 % of untreated. For the same compound, the “Phytotoxicity Index (scale 0-9)” value (H4 (A122T/A205V hybrid), 1x=80 g ai/ha) was 0.0, the “Phytotoxicity Index (scale 0-9)” value [8] was 0.0 and the plant height [8] was 100.0 % of untreated. The “Phytotoxicity Index (scale 0-9)” value [9] was 0.0, the plant height [9] was 100.0 % of untreated and the “Phytotoxicity Index (scale 0-9)” value (H4 (A122T/A205V hybrid), 4x=320 g ai/ha) was 0.0.
